Assay results published in patent publication US20040005537A1, “Method of identifying toxic agents using differential gene expression” (priority 2000, published 2004).

Test system: rat heart tissue
Assay: GENECALLING differential gene expression analysis after dosing of serotonin modulating agents
Assay type: in vivo, Sprague Dawley rats
Summary of the method: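 GENECALLING profiling of cDNA from total RNA, keeping gene fragments modulated beyond ±1.5-fold. Tissue collected 24 h after final dosing of serotonin modulating agents; control rats received sterile water or canola oil.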

CNCCC(Oc1ccc(C(F)(F)F)cc1)c1ccccc1 (stereo not drawn) [fluoxetine]
Effects on Transcription Level: Novel gene fragment, 524 bp, 86% SI to mouse F-box protein FBX6b [AF176526] (CARDIOTOX 1): +1.3 fold | Effects on Transcription Level: Novel gene fragment, 306 bp, 91% SI to mouse low density lipoprotein receptor related protein 4 [AB013874] (CARDIOTOX 2): −1.3 fold | Effects on Transcription Level: Novel gene fragment, 540 bp, 97% SI to mouse skeletal muscle alpha-actin [X03766] (CARDIOTOX 3): −1.2 fold | Effects on Transcription Level: Novel gene fragment, 80 bp (CARDIOTOX 4): −1.3 fold | Effects on Transcription Level: Novel gene fragment, 957 bp, 99% SI to kidney injury associated moleculer HW036 [V80591] (CARDIOTOX 5): −1.4 fold | Effects on Transcription Level: Novel gene fragment, 282 bp, 85% SI to human KIAA1515 protein [AB040948] (CARDIOTOX 6): −1.2 fold | Effects on Transcription Level: Novel gene fragment, 405 bp, 88% SI to human 2-oxoglutarate dehydrogenase [D10523] (CARDIOTOX 7): +1.2 fold | Effects on Transcription Level: UCP2 (CARDIOTOX 8, GenBank AB010743): −1.3 fold | Effects on Transcription Level: Plasma membrane Ca2 + ATPase-isoform 1 (CARDIOTOX 9, GenBank J03753): −1.1 fold | Effects on Transcription Level: Novel gene fragment, 242 bp, 97% SI to mouse HSP86 heat-shock protein [X16857] (CARDIOTOX 10): +1.4 fold | Effects on Transcription Level: Novel gene fragment, 280 bp, 65% SI to human TRF1-interacting, ankyrin-related ADP-ribose polymerase [AF082556] (CARDIOTOX 11): +1.3 fold | Effects on Transcription Level: Novel gene fragment, 348 bp, 88% SI to mouse Sec61 protein complex gamma subunit [U11027] (CARDIOTOX 12): +1.2 fold | Effects on Transcription Level: Novel gene fragment 553 bp, 93% SI to mouse Sid329 [AB024984] (CARDIOTOX 13): +1.1 fold | Effects on Transcription Level: Kruppel-like transcription factor (CARDIOTOX 14, GenBank AB020759): +1.3 fold | Effects on Transcription Level: Ribosomal protein L3 (CARDIOTOX 15, GenBank X62166): +1.1 fold | Effects on Transcription Level: Glucose-regulated protein (GRP) 75 (CARDIOTOX 16, GenBank S78556): +1.3 fold | Effects on Transcription Level: Immunoglobulin heavy chain binding protein (BiP) (CARDIOTOX 17, GenBank M14050): +1.4 fold | Effects on Transcription Level: Membrane-spannining proteoglycan NG2 (CARDIOTOX 18, GenBank X56541): −1.2 fold | Effects on Transcription Level: Novel gene fragment, 1294 bp, 96% SI to mouse Sui 1 (elF) homolog [AF129888] (CARDIOTOX 19): +1.1 fold | Effects on Transcription Level: Novel gene fragment, 723 bp, 85% SI to human translation initiation factor elF3 p40 subunit [U54559] (CARDIOTOX 20): +1.0 fold | Effects on Transcription Level: Novel gene fragment, 1324 bp, 76% SI to human flavoprotein subunit of complex II [D30648] (CARDIOTOX 21): +1.3 fold | Effects on Transcription Level: Novel gene fragment, 852 bp, 81% SI to human vacuolar proton-ATPase subunit M9.2 [Y15286] (CARDIOTOX 22): +1.2 fold | Effects on Transcription Level: Novel gene fragment, 178 bp, 91% SI to mouse myosin light chain-2 isoform MLC-2a [S70785] (CARDIOTOX 23): +1.3 fold | Effects on Transcription Level: Novel gene fragment, 167 bp, 90% SI to mouse Rab20 [X80332] (CARDIOTOX 24): −1.2 fold | Effects on Transcription Level: Novel gene fragment, 1070 bp, 80% SI to human muscle-specific protein [AF249873] (CARDIOTOX 25): +1.3 fold | Effects on Transcription Level: Novel gene fragment, 1143 bp, 82% SI to human sarcoma amplified sequence (SAS) [U01160] (CARDIOTOX 26): +1.2 fold | Effects on Transcription Level: Novel gene fragment, 74 bp,75% SI to human secreted protein [X30160] (from patent database)/[X97578] (from patent database)/potential cytokine) (CARDIOTOX 27): +1.2 fold | Effects on Transcription Level: Novel gene fragment, 408 bp, 90% SI to human CGI-07 protein [AF132941] (CARDIOTOX 28): +1.2 fold | Effects on Transcription Level: Novel gene fragment, 618 bp, 95% SI to rat progression related cDNA, ZNPE-120 3′ end partial sequence [patent database X90805] (CARDIOTOX 29): +1.4 fold | Effects on Transcription Level: Novel gene fragment, 717 bp (CARDIOTOX 30): +1.2 fold | Effects on Transcription Level: Novel gene fragment, 546 bp (CARDIOTOX 31): +1.1 fold | Effects on Transcription Level: Novel gene fragment, 920 bp, 91% SI to human HSPC061 [AF161546] (CARDIOTOX 32): +1.4 fold | Effects on Transcription Level: Novel gene fragment, 203 bp, 92% SI to rabbit sarcoplasmic reticulum glycoprotein [J04480] (CARDIOTOX 33): −1.4 fold | Effects on Transcription Level: Novel gene fragment, 178 bp, 68% SI to mouse IgG receptor (beta-Fc-gamma-RII)[M63159] (CARDIOTOX 34): +1.3 fold | Effects on Transcription Level: Ribosomal protein L6 (CARDIOTOX 35, GenBank X87107): +1.2 fold | Effects on Transcription Level: CAP2 protein (adenylyl cyclase-associated protein 2) (CARDIOTOX 36, GenBank U31935): +1.4 fold | Effects on Transcription Level: Alpha-platelet-derived growth factor receptor (CARDIOTOX 37, GenBank M63837): +1.3 fold | Effects on Transcription Level: Rab GD1 alpha protein (CARDIOTOX 38, GenBank X74402): −1.3 fold | Effects on Transcription Level: PKC-zeta-interacting protein (CARDIOTOX 39, GenBank Y08355): +1.1 fold | Effects on Transcription Level: ERK or MAP kinase (CARDIOTOX 40, GenBank X65198): +1.3 fold | Effects on Transcription Level: Peroxisomal multifunctional enzyme type II (CARDIOTOX 41, GenBank U37486): +1.3 fold | Effects on Transcription Level: HBP23 (heme-binding protein 23 kDa) (CARDIOTOX 42, GenBank D30035): +1.3 fold | Effects on Transcription Level: Caveolae-associated protein (CARDIOTOX 43, GenBank U90725): +1.3 fold | Effects on Transcription Level: Prenylated rab acceptor 1 (PRA1) (CARDIOTOX 44, GenBank AF025506): +1.2 fold | Effects on Transcription Level: Novel gene fragment, 337 bp, 88% SI to rabbit cardiac ryanodine receptor (RyR-2)[U50465] (CARDIOTOX 45): +1.3 fold | Effects on Transcription Level: Novel gene fragment, 81 bp, 85% SI to human titin [X90568] (CARDIOTOX 46): −1.1 fold | Effects on Transcription Level: Novel gene fragment, 428 bp, 86% SI to human titin [X90568] (CARDIOTOX 47): +1.1 fold | Effects on Transcription Level: Novel gene fragment, 374 bp, 88% SI to human titin [X90568] (CARDIOTOX 48): +1.1 fold | Effects on Transcription Level: Novel gene fragment, 428 bp, 85% SI to human titin [90568] (CARDIOTOX 49): −1.3 fold | Effects on Transcription Level: Novel gene fragment, 1216 bp, 93% SI to mouse mircotubule-associated protein (MAP) 1B protein [AF115776] (CARDIOTOX 50): −1.2 fold | Effects on Transcription Level: Novel gene fragment, 1115 bp, 83% SI to human KIAA0549 protein [AB011121] (CARDIOTOX 51): −1.4 fold | Effects on Transcription Level: Novel gene fragment, 153 bp (CARDIOTOX 52): −1.4 fold | Effects on Transcription Level: Novel gene fragment, 89 bp, 93% SI to human putative glialblastoma cell differentiation-related protein (GBDR1) [AF068195] (CARDIOTOX 53): −1.0 fold | Effects on Transcription Level: Rho-associated kinase beta (CARDIOTOX 54, GenBank U61266): −1.2 fold | Effects on Transcription Level: Adenylate kinase 3 (CARDIOTOX 55, GenBank D13062): +1.3 fold | Effects on Transcription Level: Amyloid beta-peptide binding protein (CARDIOTOX 56, GenBank AF049878): +1.3 fold | Effects on Transcription Level: Mitochondrial adenine nuleotide translocator (CARDIOTOX 57, GenBank D12771): +1.4 fold | Effects on Transcription Level: Novel gene fragment, 710 bp, 94% SI to mouse chromatin structural protein homolog Supt5 hp (Supt5 h)[U88539] (CARDIOTOX 58): +2.8 fold | Effects on Transcription Level: Novel gene fragment, 186 bp, 66% SI to human N-acetylglucosaminyltransferase 1 (GlcNAc-TI)[M55621] (CARDIOTOX 60): −2.7 fold | Effects on Transcription Level: Novel gene fragment, 238 bp, 95% SI to mouse MAP kinase-activated protein kinase 2 [X76850] (CARDIOTOX 61): −1.7 fold | Effects on Transcription Level: Novel gene fragment, 173 bp, 70% SI to G protein-coupled receptor kinase GRK4 [X97568] (CARDIOTOX 62): −4.7 fold | Effects on Transcription Level: Novel gene fragment, 133 bp, 77% SI to human apoptosis related protein hSARP3 [patent database: V19114] (CARDIOTOX 63): −2.6 fold | Effects on Transcription Level: Novel gene fragment, 477 bp, 98% SI to peroxisomal phytanoyl-CoA hydroxylase (PHYH) [AF121345] (CARDIOTOX 64): +3.7 fold | Effects on Transcription Level: Novel gene fragment, 413 bp, 95% SI to mouse dihydrolipoamide dehydrogenase (Dld) [U73445] (CARDIOTOX 65): +2.0 fold | Effects on Transcription Level: Novel gene fragment, 726 bp, 76% SI to human succinate dehydrogenase flavoprotein subunit (SDH) [L21936] (CARDIOTOX 66): −4.4 fold | Effects on Transcription Level: Novel gene fragment, 440 bp, 92% SI to mouse cytochrome c oxidase Vllc [X52940] (CARDIOTOX 67): +2.1 fold | Effects on Transcription Level: Novel gene fragment, 276 bp, 80% SI to human titin [X90568] (CARDIOTOX 68): −11.0 fold | Effects on Transcription Level: Novel gene fragment, 149 bp, 70% SI to human titin [X90568] (CARDIOTOX 69): −3.7 fold | Effects on Transcription Level: Novel gene fragment, 467 bp, 94% SI to mouse gelsolin [J04953] (CARDIOTOX 70): −3.8 fold
